Laboratory results as given in US6737383B1, “Herbicidal oxadiazolidines” (priority 1999, dated 2004).

Legend:
duck salad = assay: Test B flood test duck salad; assay type: in vivo, Heteranthera limosa
Procedure, shortened: (§1)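 Flood test on plants grown to the 2-leaf stage; treated plants kept in greenhouse twelve to sixteen days, then visually rated against controls on a 0 (no effect) to 10 (complete control) scale.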

bamyardgrass = assay: Test B flood test barnyardgrass; assay type: in vivo, Echinochloa crus-galli
Procedure, shortened: as §1

smallflower flatsedge = assay: Test B flood test smallflower flatsedge; assay type: in vivo, Cyperus difformis
Procedure, shortened: as §1

rice = assay: Test B flood test rice; assay type: in vivo, Oryza sativa
Procedure, shortened: as §1

sugar beet = assay: Test B pre/postemergence sugar beet; assay type: in vivo, Beta vulgaris
Procedure, shortened: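 Response is a visual 0-to-10 score relative to untreated plants, where 0 means no effect and 10 means complete control, taken twelve to sixteen days after application. Treatments went onto soil at planting and onto foliage of 1- to 4-leaf plants, using a surfactant-containing non-phytotoxic solvent.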

[1] = Rate 62 g/ha, headed Pre-emergence (flood test species), scale 0 to 10 (0 no effect, 10 complete control)
[2] = Rate 125 g/ha, Pre-emergence, flood test species, scale 0 to 10 where 0 is no effect and 10 is complete control
[3] = Rate 250 g/ha, Pre-emergence, flood-test species, scale 0 to 10, 0 is no effect, 10 is complete control
[4] = Rate 500 g/ha, headed Pre-emergence (flood test species), scale 0 to 10 (0 no effect, 10 complete control)
[5] = Rate 500 g/ha, Pre-emergence, flood test species, scale 0 to 10 (0 no effect, 10 complete control)
[6] = Preemergence, Rate 62 g/ha, scale of 0 to 10 where 0 is no effect and 10 is complete control
[7] = Preemergence, Rate 500 g/ha, scale of 0 to 10 where 0 is no effect and 10 is complete control
[8] = Rate 62 g/ha, Postemergence, scale of 0 to 10 where 0 is no effect and 10 is complete control
[9] = Rate 125 g/ha, Postemergence, scale 0 to 10
[10] = Rate 31 g/ha, Pre-emergence section (flood test species), scale 0 to 10
[11] = Preemergence, Rate 250 g/ha, scale of 0 to 10 where 0 is no effect and 10 is complete control
[12] = Rate 125 g/ha, Preemergence, scale of 0 to 10 where 0 is no effect and 10 is complete control
[13] = Rate 500 g/ha, Postemergence, scale 0 to 10, 0 no effect, 10 complete control
[14] = Pre-emergence, Rate 1000 g/ha, scale 0 to 10 (0 no effect, 10 complete control)
[15] = Rate 125 g/ha, Postemergence, scale of 0 to 10 where 0 is no effect and 10 is complete control
[16] = Rate 250 g/ha, Postemergence, scale of 0 to 10 where 0 is no effect and 10 is complete control
[17] = Rate 62 g/ha, Postemergence, scale 0 to 10 (0 no effect, 10 complete control)

CSc1ccc(N(C(=O)n2oc(=O)n(-c3ccccc3C)c2=O)C(C)C)cc1 [Compound 205]
Ducksalad plant response rating (duck salad; [1]): 0 | Ducksalad plant response rating (duck salad; [2]): 0 | Ducksalad plant response rating (duck salad; [3]): 0 | Plant response rating, Ducksalad (duck salad; [4]): 0 | Barnyardgrass plant response rating (bamyardgrass; [1]): 0 | Barnyardgrass plant response rating (bamyardgrass; [2]): 0 | Barnyardgrass plant response rating (bamyardgrass; [3]): 0 | Plant response rating, Barnyardgrass (bamyardgrass; [4]): 0 | S. Flatsedge plant response rating (smallflower flatsedge; [1]): 0 | S. Flatsedge plant response rating (smallflower flatsedge; [2]): 0 | S. Flatsedge plant response rating (smallflower flatsedge; [3]): 0 | S. Flatsedge plant response rating (smallflower flatsedge; [5]): 0 | Rice plant response rating (rice; [1]): 0 | Rice plant response rating (rice; [2]): 0 | Rice plant response rating (rice; [3]): 0 | Plant response rating, Rice (rice; [4]): 0 | Sugarbeets plant response rating (sugar beet; [6]): 0 | Sugarbeets plant response rating (0 to 10 scale) (sugar beet; Preemergence, Rate 125 g/ha, 0 is no effect, 10 is complete control): 0 | Sugarbeets plant response rating (sugar beet; Preemergence, Rate 250 g/ha, scale 0 to 10, 0 is no effect, 10 is complete control): 0 | Plant response rating, Sugarbeets (sugar beet; [7]): 0 | Sugarbeets plant response rating (sugar beet; [8]): 0 | Sugarbeets plant response rating (sugar beet; [9]): 0 | Plant response rating (0 to 10; 0 is no effect, 10 is complete control), Sugarbeets (sugar beet; Rate 250 g/ha, Postemergence): 0 | Sugarbeets plant response rating (sugar beet; Rate 500 g/ha, Postemergence, scale 0 to 10): 0

CC(=O)Cn1c(=O)on(C(=O)N(c2ccc(F)cc2)C(C)C)c1=O [Compound 217]
Ducksalad plant response rating (duck salad; [10]): 0 | Ducksalad plant response rating (duck salad; [1]): 0 | Ducksalad plant response rating (duck salad; [2]): 0 | Ducksalad plant response rating (duck salad; [3]): 0 | Barnyardgrass plant response rating (bamyardgrass; [10]): 0 | Barnyardgrass plant response rating (bamyardgrass; [1]): 0 | Barnyardgrass plant response rating (bamyardgrass; [2]): 0 | Barnyardgrass plant response rating (bamyardgrass; [3]): 0 | S. Flatsedge plant response rating (smallflower flatsedge; [10]): 0 | S. Flatsedge plant response rating (smallflower flatsedge; [1]): 0 | S. Flatsedge plant response rating (smallflower flatsedge; [2]): 0 | S. Flatsedge plant response rating (smallflower flatsedge; [3]): 0 | Rice plant response rating (rice; [10]): 0 | Rice plant response rating (rice; [1]): 0 | Rice plant response rating (rice; [2]): 0 | Rice plant response rating (rice; [3]): 0 | Sugarbeets plant response rating (sugar beet; Preemergence, Rate 31 g/ha, visual rating, scale 0 to 10 (0 no effect, 10 complete control)): 0 | Sugarbeets plant response rating (sugar beet; [6]): 0 | Sugarbeets plant response rating (sugar beet; [11]): 0 | Sugarbeets plant response rating (sugar beet; [8]): 0 | Sugarbeets plant response rating (sugar beet; [9]): 0 | Sugarbeets plant response rating (sugar beet; [12]): 0 | Plant response rating (0 to 10; 0 is no effect, 10 is complete control), Sugarbeets (sugar beet; Rate 250 g/ha, Postemergence): 0

COc1cc(C)cc(C)c1-n1c(=O)on(C(=O)N(c2ccc(F)cc2F)C(C)C)c1=O [Compound 223]
Ducksalad plant response rating (duck salad; [1]): 0 | Ducksalad plant response rating (duck salad; [2]): 0 | Ducksalad plant response rating (duck salad; [3]): 0 | Ducksalad plant response rating (duck salad; [5]): 0 | Barnyardgrass plant response rating (bamyardgrass; [1]): 0 | Barnyardgrass plant response rating (bamyardgrass; [2]): 0 | Barnyardgrass plant response rating (bamyardgrass; [3]): 0 | Barnyardgrass plant response rating (bamyardgrass; [5]): 0 | S. Flatsedge plant response rating (smallflower flatsedge; [1]): 0 | S. Flatsedge plant response rating (smallflower flatsedge; [2]): 0 | S. Flatsedge plant response rating (smallflower flatsedge; [3]): 0 | S. Flatsedge plant response rating (smallflower flatsedge; [5]): 0 | Rice plant response rating (rice; [1]): 0 | Rice plant response rating (rice; [2]): 0 | Rice plant response rating (rice; [3]): 0 | Rice plant response rating (rice; [5]): 0 | Sugarbeets plant response rating (sugar beet; [6]): 0 | Sugarbeets plant response rating (sugar beet; [11]): 0 | Plant response rating, Sugarbeets (sugar beet; [7]): 0 | Sugarbeets plant response rating (sugar beet; [8]): 0 | Sugarbeets plant response rating (sugar beet; [9]): 1 | Sugarbeets plant response rating (sugar beet; [12]): 0 | Plant response rating (0 to 10; 0 is no effect, 10 is complete control), Sugarbeets (sugar beet; Rate 250 g/ha, Postemergence): 2 | Sugarbeets plant response rating (sugar beet; [13]): 3

CCOC(=O)C(C)N(C(=O)n1oc(=O)n(C2CCCCC2)c1=O)c1ccc(F)cc1 (stereo not shown) [Compound 280]
Ducksalad plant response rating (duck salad; [14]): 0 | Ducksalad plant response rating (duck salad; [2]): 0 | Ducksalad plant response rating (duck salad; [3]): 0 | Ducksalad plant response rating (duck salad; [5]): 0 | Barnyardgrass plant response rating (bamyardgrass; [14]): 0 | Barnyardgrass plant response rating (bamyardgrass; [2]): 0 | Barnyardgrass plant response rating (bamyardgrass; [3]): 0 | Barnyardgrass plant response rating (bamyardgrass; [5]): 0 | S. Flatsedge plant response rating (smallflower flatsedge; [14]): 0 | S. Flatsedge plant response rating (smallflower flatsedge; [2]): 0 | S. Flatsedge plant response rating (smallflower flatsedge; [3]): 0 | S. Flatsedge plant response rating (smallflower flatsedge; [5]): 0 | Rice plant response rating (rice; [14]): 0 | Rice plant response rating (rice; [2]): 0 | Rice plant response rating (rice; [3]): 0 | Rice plant response rating (rice; [5]): 0 | Sugarbeets plant response rating (sugar beet; Postemergence, Rate 1000 g/ha, scale 0 to 10 (0 no effect, 10 complete control)): 0 | Sugarbeets plant response rating (sugar beet; [11]): 0 | Plant response rating, Sugarbeets (sugar beet; [7]): 0 | Sugarbeets plant response rating (sugar beet; [15]): 0 | Sugarbeets plant response rating (sugar beet; [12]): 0 | Plant response rating, Sugarbeets (sugar beet; [16]): 0 | Sugarbeets plant response rating (sugar beet; [13]): 0 | Plant response rating, Sugarbeets (sugar beet; Rate 1000 g/ha, Preemergence, scale 0 to 10 (0 no effect, 10 complete control)): 0

CC(C)N(C(=O)n1oc(=O)n(C(C)C)c1=O)c1cnccn1 [Compound 296]
Ducksalad plant response rating (duck salad; [10]): 0 | Ducksalad plant response rating (duck salad; [1]): 0 | Ducksalad plant response rating (duck salad; [2]): 0 | Ducksalad plant response rating (duck salad; [3]): 0 | Barnyardgrass plant response rating (bamyardgrass; [10]): 0 | Barnyardgrass plant response rating (bamyardgrass; [1]): 0 | Barnyardgrass plant response rating (bamyardgrass; [2]): 0 | Barnyardgrass plant response rating (bamyardgrass; [3]): 0 | S. Flatsedge plant response rating (smallflower flatsedge; [10]): 0 | S. Flatsedge plant response rating (smallflower flatsedge; [1]): 0 | S. Flatsedge plant response rating (smallflower flatsedge; [2]): 0 | S. Flatsedge plant response rating (smallflower flatsedge; [3]): 0 | Rice plant response rating (rice; [10]): 0 | Rice plant response rating (rice; [1]): 0 | Rice plant response rating (rice; [2]): 0 | Rice plant response rating (rice; [3]): 0 | Sugarbeets plant response rating (sugar beet; Postemergence, Rate 31 g/ha, visual rating, scale 0 to 10 (0 no effect, 10 complete control)): 0 | Sugarbeets plant response rating (sugar beet; [6]): 0 | Sugarbeets plant response rating (sugar beet; [11]): 0 | Sugarbeets plant response rating (sugar beet; [17]): 0 | Sugarbeets plant response rating (sugar beet; [15]): 0 | Sugarbeets plant response rating (sugar beet; [12]): 0 | Plant response rating, Sugarbeets (sugar beet; [16]): 0

Cc1ccccc1-n1c(=O)on(C(=O)N(c2ccc(OC(F)(F)F)cc2)C(C)C)c1=O [Compound 300]
Ducksalad plant response rating (duck salad; [1]): 0 | Ducksalad plant response rating (duck salad; [2]): 0 | Ducksalad plant response rating (duck salad; [3]): 0 | Ducksalad plant response rating (duck salad; [5]): 0 | Barnyardgrass plant response rating (bamyardgrass; [1]): 0 | Barnyardgrass plant response rating (bamyardgrass; [2]): 0 | Barnyardgrass plant response rating (bamyardgrass; [3]): 0 | Barnyardgrass plant response rating (bamyardgrass; [5]): 0 | S. Flatsedge plant response rating (smallflower flatsedge; [1]): 0 | S. Flatsedge plant response rating (smallflower flatsedge; [2]): 0 | S. Flatsedge plant response rating (smallflower flatsedge; [3]): 0 | S. Flatsedge plant response rating (smallflower flatsedge; [5]): 0 | Rice plant response rating (rice; [1]): 0 | Rice plant response rating (rice; [2]): 0 | Rice plant response rating (rice; [3]): 0 | Rice plant response rating (rice; [5]): 0 | Sugarbeets plant response rating (sugar beet; [6]): 0 | Sugarbeets plant response rating (0 to 10 scale) (sugar beet; Preemergence, Rate 125 g/ha): 0 | Sugarbeets plant response rating (sugar beet; [11]): 0 | Sugarbeets plant response rating (sugar beet; [7]): 0 | Sugarbeets plant response rating (sugar beet; [17]): 0 | Sugarbeets plant response rating (sugar beet; [15]): 0 | Plant response rating, Sugarbeets (sugar beet; [16]): 0

C=CCn1c(=O)on(C(=O)N(CC)C2CCCCC2)c1=O [Compound 307]
Ducksalad plant response rating (duck salad; [14]): 0 | Ducksalad plant response rating (duck salad; [2]): 0 | Ducksalad plant response rating (duck salad; [3]): 0 | Ducksalad plant response rating (duck salad; [5]): 0 | Barnyardgrass plant response rating (bamyardgrass; [14]): 0 | Barnyardgrass plant response rating (bamyardgrass; [2]): 0 | Barnyardgrass plant response rating (bamyardgrass; [3]): 0 | Barnyardgrass plant response rating (bamyardgrass; [5]): 0 | S. Flatsedge plant response rating (smallflower flatsedge; [14]): 0 | S. Flatsedge plant response rating (smallflower flatsedge; [2]): 0 | S. Flatsedge plant response rating (smallflower flatsedge; [3]): 0 | S. Flatsedge plant response rating (smallflower flatsedge; [5]): 0 | Rice plant response rating (rice; [14]): 0 | Rice plant response rating (rice; [2]): 0 | Rice plant response rating (rice; [3]): 0 | Rice plant response rating (rice; [5]): 0 | Sugarbeets plant response rating (sugar beet; [6]): 0 | Sugarbeets plant response rating (0 to 10 scale) (sugar beet; Preemergence, Rate 125 g/ha): 0 | Sugarbeets plant response rating (sugar beet; [11]): 0 | Sugarbeets plant response rating (sugar beet; [7]): 2 | Sugarbeets plant response rating (sugar beet; [17]): 0 | Sugarbeets plant response rating (sugar beet; [15]): 0 | Plant response rating, Sugarbeets (sugar beet; [16]): 0

CCN(C(=O)n1oc(=O)n(C2CCCCC2)c1=O)C1CCCCC1 [Compound 308]
Ducksalad plant response rating (duck salad; [14]): 0 | Ducksalad plant response rating (duck salad; [2]): 0 | Ducksalad plant response rating (duck salad; [3]): 0 | Ducksalad plant response rating (duck salad; [5]): 0 | Barnyardgrass plant response rating (bamyardgrass; [14]): 0 | Barnyardgrass plant response rating (bamyardgrass; [2]): 0 | Barnyardgrass plant response rating (bamyardgrass; [3]): 0 | Barnyardgrass plant response rating (bamyardgrass; [5]): 0 | S. Flatsedge plant response rating (smallflower flatsedge; [14]): 0 | S. Flatsedge plant response rating (smallflower flatsedge; [2]): 0 | S. Flatsedge plant response rating (smallflower flatsedge; [3]): 0 | S. Flatsedge plant response rating (smallflower flatsedge; [5]): 0 | Rice plant response rating (rice; [14]): 0 | Rice plant response rating (rice; [2]): 0 | Rice plant response rating (rice; [3]): 0 | Rice plant response rating (rice; [5]): 0 | Sugarbeets plant response rating (sugar beet; [6]): 0 | Sugarbeets plant response rating (0 to 10 scale) (sugar beet; Preemergence, Rate 125 g/ha): 0 | Sugarbeets plant response rating (sugar beet; [11]): 0 | Sugarbeets plant response rating (sugar beet; [7]): 0 | Sugarbeets plant response rating (sugar beet; [17]): 0 | Sugarbeets plant response rating (sugar beet; [15]): 0 | Plant response rating, Sugarbeets (sugar beet; [16]): 0
